Experiments:
[1] = test system: CG (DNA, duplex) CGCGCGCGCGCG; test: absorption titration, NMR line broadening; conditions: Na+ (10 mM sodium phosphate, 10 mM NaCl); buffer A pH 7.5, 25 °C; intercalation only, almost no fluorescence enhancement
[2] = test system: AT (DNA, duplex) CGCGATCGCG; test: absorption and fluorescence titration; conditions: Na+ (10 mM sodium phosphate, 10 mM NaCl); buffer A pH 7.5, 25 °C; mixed intercalation and incomplete groove binding
[3] = test system: t-(AT)2 (DNA, duplex) ATATCGCGATAT; test: absorption and fluorescence titration; conditions: Na+ (10 mM sodium phosphate, 10 mM NaCl); buffer A pH 7.5, 25 °C; mixed intercalation and incomplete groove binding
[4] = test system: (AT)2 (DNA, duplex) CGCGATATCGCG; test: absorption and fluorescence titration; conditions: Na+ (10 mM sodium phosphate, 10 mM NaCl); buffer A pH 7.5, 25 °C; minor groove at 1:1, intercalation at low [DNA]/[TC]
[5] = test system: A3T3 (DNA, duplex) CGCGAAATTTCGCG; test: ITC; conditions: Na+ (10 mM sodium phosphate, 10 mM NaCl); buffer A pH 7.5, 25 °C; TC into 40 μM A3T3; single site model
[6] = test system: A2T2 (DNA, duplex) CGCGAATTCGCG; test: absorption, fluorescence and NMR titration; conditions: Na+ (10 mM sodium phosphate, 10 mM NaCl); buffer A pH 7.5, 25 °C; minor groove at 1:1, intercalation at low [DNA]/[TC]

## CCN(CC)c1ccc2cc(/C=C/c3sc4ccccc4[n+]3C)c(=O)oc2c1
[1]
  binding: yes
[2]
  binding: yes
[3]
  binding: yes
[4]
  binding: yes
[5]
  Kd: 2900 nM
[6]
  binding: yes
